Drawing on patent publication US8957047B2, “GLA monotherapy for use in cancer treatment” (Immune Design Corp., priority 2013, dated 2015), this text covers B16F10 tumor growth, percent survival and tumor growth for one compound.

The subject of experiment [1] is B16F10 cells. The experiment is described as follows: B16F10 footpad model, GLA plus checkpoint inhibitor (Example 5). The class given is in vivo, C57B1/6 mice. Conditions: GLA alone: 5 μg GLA-SE/2% SE i.t. from Day 4 every 3-4 days; FIG. 7B. On the procedure: Mice were given i.t. administrations of 5 μg GLA-SE/2% SE (or 2% SE vehicle control) plus intraperitoneal (i.p.) administrations of a CPI [anti-PDL1, anti-PD1, anti-CTLA4 (clone 9H10), anti-CTLA4 (clone 9D9), or LTF2 control antibody] at 100 μg starting on Day 4 and every 3-4 days thereafter until the end of study.

The test system of experiment [2] is B16F10 cells. Nature of the experiment: B16F10 footpad model, GLA i.t. plus anti-CD40 i.p. (Example 6). The class given is in vivo, C57B1/6 mice. Conditions: GLA alone: 5 μg GLA-SE/2% SE i.t. from Day 4 every 3-4 days; FIG. 8A. On the procedure:
Mice were given i.t. administrations of 5 μg GLA-SE/2% SE (or 2% SE vehicle control) plus i.p. administrations of anti-CD40 (or 2A3 control antibody) at 100 μg, starting on Day 4 and every 3-4 days thereafter until the end of study (FIG. 8A).

In a further experiment the test system is B16 melanoma cells. The experiment is described as follows: Murine B16 melanoma model, subcutaneous inoculation (Example 1). Particulars: 5 μg GLA-SE i.m. on Day 0, Day 9 and Day 14; relative to saline; FIG. 2. Format: in vivo, mice. On the procedure:
The B16 murine melanoma model is an accepted animal model for both solid tumor formation as well as metastasis (see e.g., Curr Protoc Immunol. 2001 May; CHAPTER 20: Unit-20.1. doi:10.1002/0471142735.im2001s39). In this study, mice were inoculated subcutaneously with 3×10^5 B16 cells on Day minus 9 (n=10 per group). Mice were treated with either saline or 5 μg GLA-SE i.m. on Day 0, Day 9 and Day 14.

The test system of experiment [3] is B16F10 cells. The experiment is described as follows: B16F10 footpad model, optimal time to begin GLA administration (Example 5). Conditions: 5 μg GLA-SE/2% SE i.t. starting Day 4 post-tumor injection, every 3-4 days; FIG. 7A. The class given is in vivo, C57BL/6 mice. On the procedure:
To determine the optimal time to begin GLA administration, female C57BL/6 mice (n=5 per group) were inoculated with 5×10^5 B16F10 cells, subcutaneously in the right footpad on Day 0. Mice were given intratumoral (i.t.) administrations of 5 μg GLA-SE/2% SE (or 2% SE vehicle control) on Day 4, Day 9, or Day 14, and every 3-4 days thereafter until the end of study.

The test system of experiment [4] is B16F10 cells. The experiment is described as follows: B16F10 model, GLA i.t. plus anti-CD40 i.t., suboptimal doses (Example 6). Format: in vivo, mice. Conditions: GLA alone: 2 μg GLA-SE/2% SE i.t. on Day 8 and 15 post-tumor injection; FIG. 8B. On the procedure: To determine whether anti-CD40 exerted anti-tumor effects in the tumor microenvironment, tumor-bearing mice were given i.t. administrations of 2 μg GLA-SE/2% SE (or 2% SE vehicle control) on Day 8 and 15 post-tumor injection and i.t. administrations of 50 μg anti-CD40 (or 2A3 control antibody) on Day 5 and 12 post-tumor injection (FIG. 8B). Suboptimal doses for GLA and anti-CD40 were given to avoid masking of a possible synergistic effect of the combination.

On to `CCCCCCCCCCCCCC(=O)O[C@H](CCCCCCCCCCC)CC(=O)O[C@@H]1[C@@H](NC(=O)C[C@H](CCCCCCCCCCC)OC(=O)CCCCCCCCCCCCC)[C@H](OC[C@H]2O[C@H](O)[C@H](NC(=O)C[C@H](O)CCCCCCCCCCC)[C@@H](OC(=O)C[C@H](O)CCCCCCCCCCC)[C@@H]2O)O[C@H](CO)[C@H]1OP(=O)(O)O` [GLA, glucopyranosyl lipid A], for which the B16F10 tumor growth entry in the experiment on B16F10 cells [1], in the experiment with B16F10 cells [2] and with B16F10 cells [3] was “delayed B16F10 tumor growth” throughout. Moreover, the percent survival entry with B16 melanoma cells was “improved survival rate”. Moreover, the tumor growth result with B16F10 cells [4] was “delayed tumor growth”.
